Test in data set [1]: not given
The source holds these as a separate data set.

For the next data set, the system named is mast cells. The following applies: low concentrations, opposite effect to inhibition; cited from earlier work.
The nature of data set [2]: pKa and base-form fraction of local anesthetics in aqueous solution. It is filed as physicochemical. An excerpt: The pKa is the pH at which 50% of the drug in an aqueous solution will be in the base form and 50% in the ion or charged form. As the pH of the solution falls, more of the drug converts into the ion form. Since the pH scale is a logarithmic scale, these changes are quite marked over a small pH range.
The pKa is the pH at which 50% of the drug in solution will be in the base form and 50% in the salt form. As the pH rises above the pKa, more of the drug will dissociate and convert into the free base non-ionic form. […] Local anesthetics and their pharmacology are discussed in detail in Remington's Pharmaceutical Sciences, A. Osol, ed., Mack Pub. Co., Easton, Pa. (16th ed. 1980) and the Merck Index (11th ed., 1989).

As to `CCN(CC)CC(=O)Nc1c(C)cccc1C` [lidocaine], for the setting “alkalinized intravesical lidocaine, serum”, the “lidocaine levels compared with previously reported levels” value is “ten times higher”. The “peak blood (serum) levels of lidocaine” value (human volunteers, 4, 5 or 6 mg/kg 5% lidocaine intravesical with 8.4% sodium bicarbonate, pH 8.0, all subjects, within the first hour) is on record as 0.5-2 ug/cc. Further, the “mean peak concentration of lidocaine in blood” value (human volunteers, at 30 minutes) came to 1.06 µg/mL. Further, the “peak blood levels of radiolabeled lidocaine” value in data set [1] (anesthetized rabbits, intra-vesical, pH 8.1) was 800 CPM/0.1 ml of blood. In data set [1] (live rabbit bladder, 45 minutes in situ, pH 8.45), the “tissue levels of radioactive labeled lidocaine in bladder mucosa” value was “declined rapidly to almost the same as at the pH levels below 8.0”. In addition, the “peak tissue levels of radioactive labeled lidocaine in bladder mucosa” value in data set [1] (live rabbit bladder, 45 minutes in situ, pH between 8.1 and 8.25) was “around 3,500,000 CPM/g of tissue”. For the same compound, in the data set on mast cells, the “concentration at which lidocaine causes mast cells to release their histamine content” value is reported as below 1 mmol. The results for the “fraction of drug in the base form” value in data set [2] (pH 5.8) and in data set [2] (pH 6.8) were 0.5% and 5%, respectively.

(Values after patent publication US20050238733A1, “Topical anesthesia of the urinary bladder” (priority 2000, published 2005).)
